Values quoted from earlier work, collected in patent US6218375A, “Complex of ras-farnesyltransferase inhibitor and sulfobutylether-7-β-cyclodextrin or 2-hydroxypropyl-β-cyclodextrin and method” (priority 2000, dated 2001).

Key:
[1] = by β-cyclodextrin
[2] = by cyclodextrins
[3] = complexes with cyclodextrin derivatives, sublingual or buccal route

| SMILES | stabilization [1] | water-solubility [2] | elimination [3] | transfer into the systemic circulation [3] |
| --- | --- | --- | --- | --- |
| CCCCC/C=C\C/C=C\CCCCCCCC(=O)O [linoleic acid] | increases stabilization |  |  |  |
| CCOC(=O)c1ccc(N)cc1 [benzocaine] | increases stabilization | increase water-solubility |  |  |
| O=C(O)c1ccccc1O [salicyclic acid] | increases stabilization |  |  |  |
| C[C@]12CC[C@H]3[C@@H](CCC4=CC(=O)CC[C@@]43C)[C@@H]1CC[C@@H]2O [testosterone] |  | increase water-solubility | only gradual elimination | effective transfer of these hormones into the systemic circulation |
| O=[N+]([O-])OCC(CO[N+](=O)[O-])O[N+](=O)[O-] [nitroglycerin] | increases stabilization |  |  |  |
| CC(=O)Oc1ccccc1C(=O)O [aspirin] |  | increase water-solubility |  |  |
| CCN(CC)CCOC(=O)c1ccc(N)cc1 [procaine] | increases stabilization | increase water-solubility |  |  |
| CC(C)C12C=CC(C)(CC1)OO2 (centres unmarked) [ascaridole] | increases stabilization |  |  |  |
| C=CCS[S+]([O-])CC=C (centres unmarked) [allicin] | increases stabilization |  |  |  |
| CCN(CC)CCOC(=O)C(c1ccccc1)c1ccccc1 [adipherine] |  | increase water-solubility |  |  |
| C[C@]12CC[C@@H]3c4ccc(O)cc4CC[C@H]3[C@@H]1CC[C@@H]2O [estradiol] |  |  | only gradual elimination | effective transfer of these hormones into the systemic circulation |
| COc1ccc2c(c1)c(CC(=O)O)c(C)n2C(=O)c1ccc(Cl)cc1 [indomethacin] | increases stabilization |  |  |  |
| CC(=O)[C@H]1CC[C@H]2[C@@H]3CCC4=CC(=O)CC[C@]4(C)[C@H]3CC[C@]12C [progesterone] |  |  | only gradual elimination | effective transfer of these hormones into the systemic circulation |
| C=C1CC[C@H](O)C/C1=C/C=C1\CCC[C@]2(C)[C@@H]([C@H](C)CCCC(C)C)CC[C@@H]12 [vitamin D3] |  | increase water-solubility |  |  |
